The source made the active and inactive calls. The calls are words filed in the database; no cut-off is given here.
What was measured:
Mus musculus [1] = species on record: Mus musculus; assay: Anticonvulsion activity in mouse assessed as protection against pentylenetetrazole-induced convulsion; assay type: functional
Mus musculus [2] = species on record: Mus musculus; assay: Muscle relaxant activity in mouse; assay type: functional
Mus musculus [3] = species on record: Mus musculus; assay: Taming activity in mouse assessed as suppression of electrical current-induced aggressive behavior by foot-shock test; assay type: functional
Felis catus [4] = species on record: Felis catus; assay: Muscle relaxant activity in cat suspended by scruff of neck assessed as relaxation of body and hind legs; assay type: functional
Mus musculus [5] = species on record: Mus musculus; assay: Sedative activity in mouse; assay type: functional
Felis catus [6] = species on record: Felis catus; assay: Sedative activity in cat; assay type: functional, organism-based

Structure (SMILES) | log(1/ED50) (Mus musculus [1]) | Activity (Mus musculus [2]) | Activity (Mus musculus [3]) | Activity (Felis catus [4]) | Activity (Mus musculus [5]) | Activity (Felis catus [6]) | log(1/ED50) (Mus musculus [2]) | log(1/MED) (Mus musculus [3]) | log(1/MED) (Felis catus [4]) | log(1/ED50) (Mus musculus [5]) | Activity (Mus musculus [1])
O=C1CN=C(c2ccc(Cl)cc2Cl)c2cc(Cl)ccc2N1 | -0.3724 | inactive | inactive | inactive | inactive | inactive | – | – | – | – | –
CN1C(=O)CN=C(c2ccccc2)c2cc([N+](=O)[O-])ccc21 [NIMETAZEPAM] | 2.6917 | – | – | – | – | – | 1.4698 | 2.0719 | 3.4698 | 1.4698 | –
O=C1CN=C(c2ccccc2C(F)(F)F)c2cc(C(F)(F)F)ccc2N1 | 1.9685 | – | – | – | – | – | 1.0934 | 1.2695 | 2.8716 | 1.0934 | –
C[S+]([O-])c1ccc2c(c1)C(c1ccccc1)=NCC(=O)N2 (stereo not drawn) | 1.0764 | – | inactive | – | – | – | 0.2313 | – | 1.8722 | 0.2313 | –
O=C1CN=C(c2cccc(F)c2)c2cc(Cl)ccc2N1 | 1.8368 | – | – | – | – | – | 0.159 | 0.858 | 2.159 | 0.159 | –
CN1C(=O)CN=C(c2ccccc2F)c2cc(Cl)ccc21 [FLUDIAZEPAM] | 2.8766 | – | – | – | – | – | 1.4807 | 1.7817 | 3.7817 | 1.4807 | –
CN(C)c1ccc2c(c1)C(c1ccccc1)=NCC(=O)N2C | 1.6887 | – | – | – | – | – | 0.2908 | 0.8648 | 2.4669 | 0.2908 | –
O=C1CN=C(c2ccc(F)cc2)c2cc(Cl)ccc2N1 | – | inactive | inactive | inactive | inactive | inactive | – | – | – | – | inactive
O=C1CN=C(c2ccccc2Br)c2cc(Cl)ccc2N1 | 2.7651 | – | – | – | – | – | 0.8443 | 1.8443 | 4.0661 | 0.8443 | –
CN1C(=O)CN=C(c2ccccc2C(F)(F)F)c2cc([N+](=O)[O-])ccc21 | 2.7148 | – | – | – | – | – | 0.8609 | 1.8609 | 3.5599 | 0.8609 | –
O=C1CN=C(c2ccccc2C(F)(F)F)c2cc([N+](=O)[O-])ccc2N1 | 2.6977 | – | – | – | – | – | 0.5428 | 1.5428 | 3.5424 | 0.5428 | –
CN1C(=O)CN=C(c2ccccc2F)c2cc(F)ccc21 | 0.3325 | – | inactive | – | – | – | 0.1457 | – | 1.7574 | 0.1457 | –
Cc1ccccc1C1=NCC(=O)Nc2ccc(Cl)cc21 | 1.5675 | – | – | – | – | – | 0.2779 | 0.454 | 2.755 | 0.2779 | –
CSc1ccc2c(c1)C(c1ccccc1)=NCC(=O)N2 | 1.1493 | – | – | – | – | – | 0.2073 | 1.1493 | 2.1493 | 0.2073 | –
O=C1CN=C(c2ccccc2)c2cc(Cl)cc(Cl)c2N1 | 1.5651 | – | inactive | – | – | – | 0.3081 | – | 2.1831 | 0.3081 | –
N#Cc1ccc2c(c1)C(c1ccccc1)=NCC(=O)N2 | 2.3027 | – | – | – | – | – | 0.5416 | 0.8146 | 2.7177 | 0.5416 | –
O=C1CN=C(c2ccccc2)c2cc(C(F)(F)F)ccc2N1 [RO-052904] | 2.4829 | – | – | – | – | – | 1.4829 | 1.4829 | 3.4829 | 1.4829 | –
O=C1CN=C(c2ccccc2)c2ccccc2N1 [RO-052921] | – | – | – | inactive | – | inactive | 0.1968 | 0.3729 | – | 0.1968 | inactive
O=C1CN=C(c2ccccc2Cl)c2cc([N+](=O)[O-])ccc2N1 [CLONAZEPAM] | 3.2948 | inactive | – | – | inactive | – | – | 1.1979 | 3.8 | – | –

— ChEMBL document CHEMBL3272278, “Electronic factors in the structure-activity relationship of some 1,4-benzodiazepin-2-ones” (1977)
